According to the Kinase Knowledgebase extract (Sharma et al. 2016):
Values joined by “and” are separate entries in the source; they are usually repeats but may differ in a detail not shown here. Equal entries are not always repeated.

target: PIK3CD (Human) (UniProt O00329); test: Enzyme Assay
Sequence (O00329 whole entry, looked up): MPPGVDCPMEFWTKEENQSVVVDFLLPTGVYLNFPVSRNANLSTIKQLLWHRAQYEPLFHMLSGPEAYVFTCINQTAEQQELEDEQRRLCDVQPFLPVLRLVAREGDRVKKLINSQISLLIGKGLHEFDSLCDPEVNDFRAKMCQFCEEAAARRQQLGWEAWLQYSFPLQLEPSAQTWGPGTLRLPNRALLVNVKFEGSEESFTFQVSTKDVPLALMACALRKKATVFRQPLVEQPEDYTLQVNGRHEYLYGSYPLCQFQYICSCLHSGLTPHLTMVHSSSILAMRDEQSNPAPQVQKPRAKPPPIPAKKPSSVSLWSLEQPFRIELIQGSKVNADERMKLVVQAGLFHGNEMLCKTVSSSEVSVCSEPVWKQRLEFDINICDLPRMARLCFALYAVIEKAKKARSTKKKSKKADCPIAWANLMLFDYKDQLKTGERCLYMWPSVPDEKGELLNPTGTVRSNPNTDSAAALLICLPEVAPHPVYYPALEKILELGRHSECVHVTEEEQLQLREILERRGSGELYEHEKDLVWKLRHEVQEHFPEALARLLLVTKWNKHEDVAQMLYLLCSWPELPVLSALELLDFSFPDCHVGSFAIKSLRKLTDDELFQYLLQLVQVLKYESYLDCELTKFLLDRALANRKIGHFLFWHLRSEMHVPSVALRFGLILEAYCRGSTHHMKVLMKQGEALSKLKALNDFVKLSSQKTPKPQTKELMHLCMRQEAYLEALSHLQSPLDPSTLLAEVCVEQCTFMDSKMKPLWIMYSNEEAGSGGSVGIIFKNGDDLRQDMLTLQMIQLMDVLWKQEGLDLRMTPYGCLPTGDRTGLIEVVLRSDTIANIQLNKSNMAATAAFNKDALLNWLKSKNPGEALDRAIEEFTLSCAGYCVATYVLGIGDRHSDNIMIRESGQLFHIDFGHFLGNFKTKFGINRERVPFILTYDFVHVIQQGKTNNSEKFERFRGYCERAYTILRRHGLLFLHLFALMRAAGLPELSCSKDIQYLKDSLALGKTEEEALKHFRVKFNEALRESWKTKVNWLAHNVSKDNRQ

SMILES	IC50
CCn1ncc(-c2nc3c(CC4CCN(C(=O)C5CCOCC5)C4)ncnc3n2C)c1C (stereo unspecified)	290 nM
CCC(=O)N1CC[C@H](Oc2ncnc3c2nc(-c2ccc4cc[nH]c4c2)n3C)C1	120 nM
Cc1n[nH]c2ncc(-c3nc4c(O[C@H]5CCN(C(=O)OC(C)(C)C)C5)ncnc4n3C)cc12	4 nM
CCn1c(-c2cnc(C)nc2)nc2c(O[C@H]3C[C@@H](NC(=O)OC(C)(C)C)C3)ncnc21	96 nM and 220 nM
CCn1ncc(-c2nc3c(O[C@H]4CCN(C(=O)OCc5ccccc5)C4)ncnc3n2C)c1C	14 nM
CCn1ncc(-c2nc3c(O[C@H]4CCN(C(=O)c5ccc(N6CCN(C)CC6)cc5)C4)ncnc3n2C)c1C	110 nM
CCn1c(-c2cnc(C)nc2C)nc2c(O[C@H]3CCN(C(=O)C4CC4)C3)ncnc21	44 nM
CCn1c(N(C)CC(C)C)nc2c(O[C@H]3CCN(C(=O)OC(C)(C)C)C3)ncnc21	150 nM
CCC(=O)N1CC[C@H](Oc2ncnc3c2nc(-c2ccc(OC)nc2)n3C)C1	10 nM
CCC(=O)N1CC[C@H](Oc2ncnc3c2nc(-c2cnn(C(C)(C)C)c2)n3C)C1	4.7 nM
CCn1c(-c2cnc(OC)c(C)c2)nc2c(O[C@H]3CCN(C(=O)C4CC4)C3)ncnc21	< 1 nM
CCc1oncc1C(=O)N1CC[C@H](Oc2ncnc3c2nc(-c2cnn(CC)c2C)n3C)C1	27 nM
CCn1ncc(-c2nc3c(S[C@H]4CCN(C(=O)c5ccn(C)n5)C4)ncnc3n2C)c1C	19 nM
CCn1ncc(-c2nc3c(O[C@H]4CCN(C(=O)C5CCc6nnnn65)C4)ncnc3n2C)c1C (stereo partly specified)	23 nM
CCn1c(C(=O)NCC(F)(F)F)nc2c(O[C@H]3CCC(C(=O)N4CC(OC)C4)C3)ncnc21 (stereo partly specified)	9.9 nM
CCC(=O)N1CC[C@H](Oc2ncnc3c2nc(-c2cnn(CC)c2C)n3C2CC2)C1	160 nM
CCn1c(-c2cnc(C)nc2)nc2c(O[C@H]3CCN(c4cccnc4)C3)ncnc21	10 nM
CCn1ncc(-c2nc3c(OC4CN(C(=O)OC(C)(C)C)C4)ncnc3n2C)c1C	85 nM

SMILES	IC50
CCC(=O)N1CC[C@H](Oc2ncnc3c2nc(-c2ccc(C)nc2)n3C)C1	66 nM
CC[C@@H]1CN(C(=O)OCc2ccccc2)C[C@H]1Oc1ncnc2c1nc(-c1cnc(C)nc1)n2CC.CC[C@H]1CN(C(=O)OCc2ccccc2)C[C@@H]1Oc1ncnc2c1nc(-c1cnc(C)nc1)n2CC	90 nM
CCn1ncc(-c2nc3c(S[C@H]4CCN(c5ccncn5)C4)ncnc3n2C)c1C	6 nM
CCn1ncc(-c2nc3c(O[C@H]4CCN(C(=O)c5conc5C)C4)ncnc3n2C)c1C	14 nM
CCn1ncc(-c2nc3c(O[C@H]4CCN(C(C)c5ccccc5)C4)ncnc3n2C)c1C (stereo partly specified)	270 nM
CCn1ncc(-c2nc3c(OC4CCN(C(=O)c5ccc6ccccc6c5)C4)ncnc3n2C)c1C (stereo unspecified)	28 nM
CCn1c(-c2cnc(C(C)(C)C)s2)nc2c(O[C@H]3CCN(C(=O)OC(C)(C)C)C3)ncnc21	0.5 nM
Cc1ncc(-c2nc3c(O[C@H]4CCN(C(=O)OC(C)(C)C)C4)ncnc3n2C)cn1	99 nM
CCn1ncc(-c2nc3c(O[C@H]4CCN(C(=O)c5cc(C)n(C)n5)C4)ncnc3n2C)c1C	150 nM
CCn1ncc(-c2nc3c(O[C@H]4CCN(C(=O)c5ccn(C)n5)C4)ncnc3n2C)c1C	2.2 nM
CCn1c(-c2cnc(C)nc2)nc2c(O[C@H]3CCN(c4ccccc4C)C3)ncnc21	85 nM
CCn1ncc(-c2nc3c(O[C@H]4CCN(C(=O)c5cc6n(n5)CCC6)C4)ncnc3n2C)c1C	76 nM
CCn1c(-c2cnc(C)nc2)nc2c(O[C@H]3CCN(C(=O)N(C)C4CC4)C3)ncnc21	28 nM
CCC(=O)N1CC[C@H](Oc2ncnc3c2nc(-c2ccc(OC)c(F)c2)n3C)C1	6.4 nM
CCn1ncc(-c2nc3c(O[C@H]4CCN(C(=O)c5nc(C(C)(C)O)no5)C4)ncnc3n2C)c1C	110 nM
CCn1ncc(-c2nc3c(O[C@H]4CCN(C(=O)Oc5ccc(OC)cc5)C4)ncnc3n2C)c1C	65 nM
CCn1ncc(-c2nc3c(O[C@H]4CCN(C(=O)c5c[nH]nc5C(F)(F)F)C4)ncnc3n2C)c1C	21 nM
CCn1ncc(-c2nc3c(OC4CCN(C(=O)OC(C)(C)C)CC4)ncnc3n2C)c1C	610 nM
